Assay results: patent publication US9346812B2, “Substituted pyrrolopyrimidine compounds, compositions thereof, and methods of treatment therewith” (Signal Pharmaceutical LLC, priority 2013, dated 2016)
Like-named read-outs stand apart in the source and are kept apart here.

System: CAL51 cell proliferation
Test: Cell Titer Glo Proliferation Assay (CAL51)
Format: cell-based, human
Conditions: CAL51 cell proliferation, 72 h, Cell Titer Glo luminescence, read-out: Act. Level
Method in brief: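 Viability is measured by CellTiter-Glo luminescence after 72 h of compound exposure. CAL51 cells were seeded in growth medium with 10% FBS and 2 mM glutamine, cultured overnight, then dosed with compound dilutions, vehicle held at 0.2% DMSO.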

## COc1cc(C(=O)N2CC2)ccc1Nc1nc(OC2CCCC2)c2c(-c3ccc4nc(C)oc4c3)c[nH]c2n1 [Example 262, aziridin-1-yl(4-(4-(cyclopentyl-oxy)-5-(2-methylbenzo[d]oxazol-6-yl)-7H-pyrrolo[2,3-d]pyrimidin-2-ylamino)-3-methoxyphenyl) methanone]
Homo sapiens, CAL-51
  IC50: 100 to 400 nM

## COc1cc(C(=O)N(C)CC#N)ccc1Nc1nc(OC2CCCC2)c2c(-c3ccc4nc(C)oc4c3)c[nH]c2n1 [Example 263, N-(cyanomethyl)-4-(4-(cyclo-pentyloxy)-5-(2-methylbenzo[d]oxazol-6-yl)-7H-pyrrolo[2,3-d]pyrimidin-2-ylamino)-3-methoxy-N-methylbenzamide]
Homo sapiens, CAL-51
  IC50: < 100 nM

## COc1cc(C(=O)N[C@H]2CCC[C@H]2O)ccc1Nc1nc(OC2CCCC2)c2c(-c3ccc4nc(C)oc4c3)c[nH]c2n1 [Example 264, 4-(4-(cyclopentyloxy)-5-(2-methylbenzo[d]oxazol-6-yl)-7H-pyrrolo[2,3-d]pyrimidin-2-ylamino)-N-((1S,2R)-2-hydroxycyclopentyl)-3-methoxy-benzamide]
Homo sapiens, CAL-51
  IC50: 100 to 400 nM

## COc1cc(C(=O)N[C@H]2CCC[C@@H]2O)ccc1Nc1nc(OC2CCCC2)c2c(-c3ccc4nc(C)oc4c3)c[nH]c2n1 [Example 265, 4-(4-(cyclopentyloxy)-5-(2-methylbenzo[d]oxazol-6-yl)-7H-pyrrolo[2,3-d]pyrimidin-2-ylamino)-N-((1S,2S)-2-hydroxy-cyclopentyl)-3-methoxybenzamide]
Homo sapiens, CAL-51
  IC50: 100 to 400 nM

## COc1cc(C(=O)N[C@@H]2CCC[C@H]2O)ccc1Nc1nc(OC2CCCC2)c2c(-c3ccc4nc(C)oc4c3)c[nH]c2n1 [Example 266, 4-(4-(cyclopentyloxy)-5-(2-methylbenzo[d]oxazol-6-yl)-7H-pyrrolo[2,3-d]pyrimidin-2-ylamino)-N-((1R,2R)-2-hydroxycyclopentyl)-3-methoxybenzamide]
Homo sapiens, CAL-51
  IC50: 100 to 400 nM

## COc1cc(C(=O)N[C@H]2CCOC2)ccc1Nc1nc(OC2CCCC2)c2c(-c3ccc4nc(C)oc4c3)c[nH]c2n1 [Example 267, (S)-4-(4-(cyclopentyloxy)-5-(2-methylbenzo[d]oxazol-6-yl)-7H-pyrrolo[2,3-d]pyrimidin-2-ylamino)-3-methoxy-N-(tetrahydrofuran-3-yl)benzamide]
Homo sapiens, CAL-51
  IC50: 100 to 400 nM

## COc1cc(C(=O)N(C)CC(N)=O)ccc1Nc1nc(OC2CCCC2)c2c(-c3ccc4nc(C)oc4c3)c[nH]c2n1 [Example 268, N-(2-amino-2-oxoethyl)-4-(4-(cyclopentyloxy)-5-(2-methylbenzo[d]oxazol-6-yl)-7H-pyrrolo[2,3-d]pyrimidin-2-ylamino)-3-methoxy-N-methylbenzamide]
Homo sapiens, CAL-51
  IC50: < 100 nM

## CNC(=O)c1ccc(Nc2nc(OC3CCOCC3)c3c(-c4ccnnc4)c[nH]c3n2)c(OC)c1 [Example 269, 3-methoxy-N-methyl-4-(5-(pyridazin-4-yl)-4-(tetrahydro-2H-pyran-4-yloxy)-7H-pyrrolo[2,3-d]pyrimidin-2-ylamino)benzamide]
Homo sapiens, CAL-51
  IC50: 400 to 1000 nM

## CNC(=O)c1ccc(Nc2nc(OC3CCOCC3)c3c(-c4ccncn4)c[nH]c3n2)c(OC)c1 [Example 270, 3-methoxy-N-methyl-4-(5-(pyrimidin-4-yl)-4-(tetrahydro-2H-pyran-4-yloxy)-7H-pyrrolo[2,3-d]pyrimidin-2-ylamino)benzamide]
Homo sapiens, CAL-51
  IC50: 100 to 400 nM

## COc1cc(C(=O)N(C)CC2(C)COC2)ccc1Nc1nc(OC2CCCC2)c2c(-c3ccc4nc(C)oc4c3)c[nH]c2n1 [Example 271, 4-(4-(cyclopentyloxy)-5-(2-methylbenzo[d]oxazol-6-yl)-7H-pyrrolo[2,3-d]pyrimidin-2-ylamino)-3-methoxy-N-methyl-N-((3-methyloxetan-3-yl)methyl)benzamide]
Homo sapiens, CAL-51
  IC50: < 100 nM

## COc1cc(C(=O)N(C)C2COC2)ccc1Nc1nc(OC2CCCC2)c2c(-c3ccc4nc(C)oc4c3)c[nH]c2n1 [Example 272, 4-(4-(cyclopentyloxy)-5-(2-methylbenzo[d]oxazol-6-yl)-7H-pyrrolo[2,3-d]pyrimidin-2-ylamino)-3-methoxy-N-methyl-N-(oxetan-3-yl)benzamide]
Homo sapiens, CAL-51
  IC50: < 100 nM

## COc1cc(C(=O)NC2CCCOC2)ccc1Nc1nc(OC2CCCC2)c2c(-c3ccc4nc(C)oc4c3)c[nH]c2n1 (stereo not shown) [Example 273, 4-(4-(cyclopentyloxy)-5-(2-methylbenzo[d]oxazol-6-yl)-7H-pyrrolo[2,3-d]pyrimidin-2-yl-amino)-3-methoxy-N-(tetrahydro-2H-pyran-3-yl)benzamide]
Homo sapiens, CAL-51
  IC50: < 100 nM

## COc1cc(C(=O)NC2CCCOC2)ccc1Nc1nc(OC2CCCC2)c2c(-c3ccc4nc(C)oc4c3)c[nH]c2n1 (stereo not shown) [Example 274, 4-(4-(cyclopentyloxy)-5-(2-methylbenzo[d]oxazol-6-yl)-7H-pyrrolo[2,3-d]pyrimidin-2-ylamino)-3-methoxy-N-(tetrahydro-2H-pyran-3-yl) benzamide]
  IC50: < 100 nM

## COc1cc(C(=O)N2CCC(OC)CC2)ccc1Nc1nc(OC2CCCC2)c2c(-c3ccc4nc(C)oc4c3)c[nH]c2n1 [Example 275, (4-(4-(cyclopentyloxy)-5-(2-methylbenzo[d]oxazol-6-yl)-7H-pyrrolo[2,3-d]pyrimidin-2-ylamino)-3-methoxyphenyl)(4-methoxypiperidin-1-yl)methanone]
Homo sapiens, CAL-51
  IC50: < 100 nM

## CC[C@H](C)Oc1nc(Nc2ccc(C(=O)NC)cc2OC)nc2[nH]cc(-c3cnn(C)c3)c12 [Example 276, (S)-4-(4-sec-butoxy-5-(1-methyl-1H-pyrazol-4-yl)-7H-pyrrolo[2,3-d]pyrimidin-2-ylamino)-3-methoxy-N-methylbenzamide]
Homo sapiens, CAL-51
  IC50: < 100 nM

## COc1cc(C#N)ccc1Nc1nc(OC2CCCC2)c2c(-c3ccc4nc(C)oc4c3)c[nH]c2n1 [Example 277, 4-(4-(cyclopentyloxy)-5-(2-methylbenzo[d]oxazol-6-yl)-7H-pyrrolo[2,3-d]pyrimidin-2-ylamino)-3-methoxybenzonitrile]
Homo sapiens, CAL-51
  IC50: 100 to 400 nM

## CNC(=O)c1ccc(Nc2nc(OC3CCCC3)c3c(-c4ccc5cnn(C)c5c4)c[nH]c3n2)c(OC)c1 [Example 278, 4-(4-(cyclopentyloxy)-5-(1-methyl-1H-indazol-6-yl)-7H-pyrrolo[2,3-d]pyrimidin-2-ylamino)-3-methoxy-N-methylbenzamide]
Homo sapiens, CAL-51
  IC50: 400 to 1000 nM

## CNC(=O)c1ccc(Nc2nc(OC3CCCC3)c3c(-c4ccc5c(C)noc5c4)c[nH]c3n2)c(OC)c1 [Example 279, 4-(4-(cyclopentyloxy)-5-(3-methylbenzo[d]isoxazol-6-yl)-7H-pyrrolo[2,3-d]pyrimidin-2-ylamino)-3-methoxy-N-methylbenzamide]
Homo sapiens, CAL-51
  IC50: < 100 nM

## CNC(=O)c1cc(OC)c(Nc2nc(OC3CCCC3)c3c(-c4ccc5nc(C)oc5c4)c[nH]c3n2)cn1 [Example 280, 5-(4-(cyclopentyloxy)-5-(2-methylbenzo[d]oxazol-6-yl)-7H-pyrrolo[2,3-d]pyrimidin-2-ylamino)-4-methoxy-N-methylpicolinamide]
Homo sapiens, CAL-51
  IC50: < 100 nM

## COc1cc(C(=O)NCC2COCCO2)ccc1Nc1nc(OC2CCCC2)c2c(-c3ccc4nc(C)oc4c3)c[nH]c2n1 (stereo not shown) [Example 281, N-((1,4-dioxan-2-yl)methyl)-4-(4-(cyclopentyloxy)-5-(2-methylbenzo[d]oxazol-6-yl)-7H-pyrrolo[2,3-d]pyrimidin-2-ylamino)-3-methoxybenzamide]
Homo sapiens, CAL-51
  IC50: 100 to 400 nM

## COc1cc(C(=O)NCC2COC2)ccc1Nc1nc(OC2CCCC2)c2c(-c3ccc4nc(C)oc4c3)c[nH]c2n1 [Example 282, 4-(4-(cyclopentyloxy)-5-(2-methylbenzo[d]oxazol-6-yl)-7H-pyrrolo[2,3-d]pyrimidin-2-ylamino)-3-methoxy-N-(oxetan-3-ylmethyl)benzamide]
Homo sapiens, CAL-51
  IC50: 100 to 400 nM

## COc1cc(C(=O)N(C)CCCO)ccc1Nc1nc(OC2CCCC2)c2c(-c3ccc4nc(C)oc4c3)c[nH]c2n1 [Example 283]
Homo sapiens, CAL-51
  IC50: < 100 nM

## COCCN(C)C(=O)c1ccc(Nc2nc(OC3CCCC3)c3c(-c4ccc5nc(C)oc5c4)c[nH]c3n2)c(OC)c1 [Example 284, 4-(4-(cyclopentyloxy)-5-(2-methylbenzo[d]oxazol-6-yl)-7H-pyrrolo[2,3-d]pyrimidin-2-ylamino)-3-methoxy-N-(2-methoxyethyl)-N-methylbenzamide]
Homo sapiens, CAL-51
  IC50: < 100 nM

## COc1cc(C(=O)NCC(C)(C)O)ccc1Nc1nc(OC2CCCC2)c2c(-c3ccc4nc(C)oc4c3)c[nH]c2n1 [Example 285, 4-(4-(cyclopentyloxy)-5-(2-methylbenzo[d]oxazol-6-yl)-7H-pyrrolo[2,3-d]pyrimidin-2-ylamino)-N-(2-hydroxy-2-methylpropyl)-3-methoxybenzamide]
Homo sapiens, CAL-51
  IC50: 100 to 400 nM

## CC[C@H](C)Oc1nc(Nc2ccc(C(=O)NCCO)cc2OC)nc2[nH]cc(-c3cnn(C)c3)c12 [Example 286, (S)-4-(4-sec-butoxy-5-(1-methyl-1H-pyrazol-4-yl)-7H-pyrrolo [2,3-d]pyrimidin-2-ylamino)-N-(2-hydroxyethyl)-3-methoxybenzamide]
Homo sapiens, CAL-51
  IC50: 100 to 400 nM

## COc1cc(C(=N)N)ccc1Nc1nc(OC2CCCC2)c2c(-c3ccc4nc(C)oc4c3)c[nH]c2n1 [Example 287, 4-(4-(cyclopentyloxy)-5-(2-methylbenzo[d]oxazol-6-yl)-7H-pyrrolo[2,3-d]pyrimidin-2-ylamino)-3-methoxybenzimidamide]
Homo sapiens, CAL-51
  IC50: 1000 to 10000 nM

## CNC(=O)c1ccc(Nc2nc(OC3CCOCC3)c3c(-c4ccnc(C(=O)NC)c4)c[nH]c3n2)c(OC)c1 [Example 288, 4-(2-(2-methoxy-4-(methylcarbamoyl)phenylamino)-4-(tetrahydro-2H-pyran-4-yloxy)-7H-pyrrolo[2,3-d]pyrimidin-5-yl)-N-methylpicolinamide]
Homo sapiens, CAL-51
  IC50: 100 to 400 nM

## COc1cc(C(=O)N2CCC(F)(F)CC2)ccc1Nc1nc(OC2CCCC2)c2c(-c3ccc4nc(C)oc4c3)c[nH]c2n1 [Example 289, (4-(4-(cyclopentyloxy)-5-(2-methylbenzo[d]oxazol-6-yl)-7H-pyrrolo[2,3-d]pyrimidin-2-ylamino)-3-methoxyphenyl)(4,4-difluoropiperidin-1-yl)methanone]
Homo sapiens, CAL-51
  IC50: 100 to 400 nM
